Experiments:
[1] = tested on: E. coli; test: Crystal Violet assay, two-enzyme treatment of mono-species biofilm; type: cell-based, Escherechia coli O157:H7; details: enzyme combined w/nuclease; Crystal Violet assay vs untreated control
Description: (§1) Applicant's initial testing was carried out with combinations of two (2) enzymes rather than a single enzyme with a nuclease present in all enzyme combinations. DNase I, a specific commonly utilized DNA nuclease, was selected as a universal enzyme. Both DNase I and other DNA nucleases were compared and formulated to have equivalent activity and then used interchangeably in the research. Nuclease was tested against all seven (7) species at three (3) concentrations and then the most overall effective concentration was used in two (2) enzyme testing. Initial two (2) enzyme testing utilized traditional mono-species biofilms of the 7 species in Table 1. The nuclease was also always tested alone in all experiments allowing some determination of its contribution to the resulting antibiofilm activity. Non-nuclease enzymes were tested at 3 concentrations while the nuclease concentration was held constant. Anti-biofilm activity was measured using the Crystal Violet assay, an easy and ubiquitous assay used for measuring changes in biofilm magnitude in the biofilm research industry.
(§2) The results of the initial two enzyme combination testing using the Crystal Violet assay is given in Table 3 and are given as a percent of the untreated control Crystal Violet signal.

[2] = tested on: S. enterica; test: as above; type: cell-based, Salmonella enterica; details: enzyme combined w/nuclease; Crystal Violet assay vs untreated control
Description: as §1, §2

[3] = tested on: L. monocytogenes; test: as above; type: cell-based, Listeria monocytogenes; details: enzyme combined w/nuclease; Crystal Violet assay vs untreated control
Description: as §1, §2

[4] = tested on: S. proteamaculans biofilms; test: Crystal Violet assay, enzyme treatment of single species biofilm; type: cell-based, Serratia proteamaculans; details: enzyme combined w/nuclease; Crystal Violet assay vs untreated control
Description: as §1
Therefore, three-enzyme combinations were also tested against single species biofilms of this species.
as §2

[5] = tested on: A. JohnsonII; test: Crystal Violet assay, two-enzyme treatment of mono-species biofilm; type: cell-based, Acinetobacter johnsonii; details: enzyme combined w/nuclease; Crystal Violet assay vs untreated control
Description: as §1, §2

[6] = tested on: L. plantarum; test: as above; type: cell-based, Lactobacillus plantarum; details: enzyme combined w/nuclease; Crystal Violet assay vs untreated control
Description: as §1, §2

[7] = tested on: 7-species; test: Crystal Violet assay, average over the 7 mono-species biofilms; type: cell-based; details: enzyme combined w/nuclease; average over species tested
Description: as §1, §2

[8] = tested on: S. proteamaculans; test: Treatment Toxicity (ATP luminescence of cell free supernatant, BacTiterGlo), biofilm; type: cell-based, Serratia proteamaculans; details: for Treatment Toxicity % Ctr: Biofilm Lifestyle
Description: These enzyme combinations were tested for bacterial cell release from enzyme-treated biofilms. Post-enzyme exposure sample overlying solutions were collected and centrifuged to collect bacterial cells released by the enzyme treatment. The supernatants were removed, and the cell pellet resuspended in PBS and ATP luminescence was determined and compared to non-enzyme treated controls. Preferred enzyme pairs were expected to release more cells than untreated controls. Additionally, because maintaining extracted microbe viability was important, the ATP luminescence of the post-centrifugation cell free supernatants were also determined and compared to untreated controls. ATP is normally sequestered inside of cells so the presence of substantially more ATP in the cell free supernatant of enzyme treated biofilms indicates the enzyme treatment may have had toxic effects on the treated bacteria.
(§3) Treatment Toxicity: To measure cell toxicity the ATP luminescence of the post-centrifugation cell free supernatants were also determined using the BacTiterGlo Microbial Cell Viability Assay (Promega) and compared to untreated controls to give a percent control value shown. Values over 100% are viewed negatively as potential toxic effects of an enzyme treatment.
(§4) With both growth lifestyles a clear dose response curve is evident.

[9] = tested on: S. proteamaculans; test: Treatment Toxicity Assay (ATP luminescence), planktonic lifestyle; type: cell-based, Serratia proteamaculans
Description: as §3, §4

[10] = tested on: S. proteamaculans; test: Sanitizing agent treatment, single species biofilm controls in multi-species biofilm testing; type: cell-based, Serratia proteamaculans; details: 100 ug/ml BZAC
Description: Multi-species biofilms were screened by treatment with a sanitizing agent to identify species combinations that show heightened resistance. The multi-species biofilm with the most resistance to the sanitizer was used to screen three (3) enzyme combinations for anti-biofilm and bacterial release testing of the six (6) top performing two (2) enzyme combinations tested earlier. Non-nuclease enzymes were tested at two (2) different concentrations. Each three-enzyme combination was also compared to each of the two-enzyme combination core pair to try to identify synergy of the three-enzyme combination over the two-enzyme combination.
as §4

Row | Substance | Biofilm Reduction Due to Enzyme Cocktail Treatment, E. coli [1] [%] | Biofilm Reduction Due to Enzyme Cocktail Treatment, S. enterica [2] [%] | Biofilm Reduction Due to Enzyme Cocktail Treatment, L. monocytogenes [3] [%] | Biofilm Reduction Due to Enzyme Cocktail Treatment, S. proteamaculens [4] [%] | Biofilm Reduction Due to Enzyme Cocktail Treatment, A. JohnsonII [5] [%^] | Biofilm Reduction Due to Enzyme Cocktail Treatment, L. plantarum [6] [%] | Biofilm Reduction Due to Enzyme Cocktail Treatment, 7-species average [7] [%] | Treatment Toxicity % Ctr ([8]; 1 μg/ml BZAC) [% Ctr] | Treatment Toxicity % Ctr ([8]; 10 μg/ml BZAC) [% Ctr] | Treatment Toxicity % Ctr ([8]; 100 μg/ml BZAC) [% Ctr] | cell-free ATP luminescence relative to untreated control biofilms ([8]; functionally active concentrations, a representative species) | Treatment Toxicity % Ctr ([9]; 1 μg/ml BZAC) [% Ctr] | Treatment Toxicity % Ctr ([9]; 10 μg/ml BZAC) [% Ctr] | Treatment Toxicity % Ctr ([9]; 100 μg/ml BZAC) [% Ctr] | biofilm reduction by sanitizer treatment [10]
1 | Cellulase | 0 | 10 | 0 | 0 | 22.4 | 0 | 5 |  |  |  |  |  |  |  | 
2 | Benzalkonium chloride [BZAC] |  |  |  |  |  |  |  | 1250.5 | 150.8 | 793.3 | over twelve-fold higher | 859.3 | 284.9 | 724.9 | consistently show biofilm reduction
